{
  "source": "paper PMC5738391",
  "about": "“Three classes of ligands each bind to distinct sites on the orphan G protein-coupled receptor GPR84” (Scientific Reports, 2017)",
  "key": {"[1]": {"molecular_target": "T1, GPR84-Cys^352Ile Gαi2 fusion protein (Homo sapiens, UniProt Q9NQS5)", "test": "[3H]G9543 radioligand binding (saturation and displacement), GPR84-Cys352Ile Gαi2 fusion protein", "set-up": "Cys352Ile Gαi2 (fusion partner, same polypeptide); expressed in transfected cells; host or cells: membranes of Flp-In T-REx 293 cells, doxycycline-induced", "details": "displacement assay", "experimental": "[^3H]G9543 is an analog of compounds 104, 107 and 161 with the same characteristic 2-(substituted-alkoxy)-9-substituted-6,7-dihydro-pyrimido[6,1-a]isoquinolin-4-one chemotype. […] Binding was initiated by the addition of membranes (5 µg of protein per tube). All assays were performed at 25 °C for 1 h before termination by the addition of ice-cold phosphate-buffered saline and vacuum filtration through GF/C glass filters using a 24-well Brandel cell harvester (Alpha Biotech, Glasgow, UK). Each reaction tube was washed three times with ice-cold PBS. The filters were allowed to dry for 2–3 h and then placed in 3 ml of Ultima Gold^TM XR. Radioactivity was quantified by liquid scintillation spectrometry. Specific binding was defined as the difference between binding detected in the presence and absence of 1 µM compound 104.\nAll data are presented as means ± SEM of at least three independent experiments. Data analysis and curve fitting was carried out using the GraphPad Prism software package version 5.0b (GraphPad, San Diego). For functional assays the concentration-response data were plotted on a log axis, with the untreated vehicle control plotted at 1 log unit lower than the lowest ligand concentration, and fitted to a three parameter sigmoidal curve with the Hill slope constrained to equal 1. In case of inhibition experiments with antagonists an equivalent analysis was followed to fit an inverse sigmoidal curve. To perform the statistical analysis of curve parameters, data from multiple experiments were fitted independently and resulting curve fit values were analysed with indicated tests. For radioligand binding data, saturation binding curves were generated by fitting the specific binding, which was obtained by subtracting non-specific from total binding, to a one site specific binding model that allows calculation of Kd values for the radioligand at wild type and mutant receptors. To determine affinity of unlabelled ligands, data obtained in displacement assays were fit to an inverse three parameter sigmoidal curve constrained by radioligand affinity and concentration to allow for Ki calculation."}, "[2]": {"molecular_target": "T2, FLAG-Arg^174Ala hGPR84-eYFP (Homo sapiens, UniProt Q9NQS5, R174A)", "T2 construct": "expressed in transfected cells; host or cells: membranes of Flp-In T-REx 293 cells, doxycycline-induced", "T2 sequence (Q9NQS5 whole entry R174A)": "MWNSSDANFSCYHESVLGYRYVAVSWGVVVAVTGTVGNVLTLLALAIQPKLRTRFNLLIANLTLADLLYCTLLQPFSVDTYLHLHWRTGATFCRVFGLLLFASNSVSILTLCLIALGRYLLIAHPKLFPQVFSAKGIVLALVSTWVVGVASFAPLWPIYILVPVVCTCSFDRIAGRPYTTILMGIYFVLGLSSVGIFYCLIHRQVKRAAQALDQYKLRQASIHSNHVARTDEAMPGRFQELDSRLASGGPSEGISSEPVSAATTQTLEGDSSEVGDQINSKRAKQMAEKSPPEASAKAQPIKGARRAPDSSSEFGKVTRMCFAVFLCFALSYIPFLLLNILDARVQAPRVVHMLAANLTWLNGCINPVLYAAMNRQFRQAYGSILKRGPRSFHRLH", "test": "[35S]GTPγS binding, Arg174Ala mutant receptor", "format": "biochemical"}, "[3]": {"molecular_target": "T1, GPR84-Cys^352Ile Gαi2 fusion protein", "test": "[35S]GTPγS binding, membranes expressing pertussis toxin-resistant GPR84-Cys352Ile Gαi2 fusion; operational model of allosteric modulation", "format": "biochemical", "experimental": "The only previous study[3] designed to explore the mode of binding of ligands to GPR84 employed a fusion protein[31],[32] in which the G protein Gαi1 was linked in-frame to the C-terminal tail of GPR84.\nMembranes were generated from Flp-In T-REx HEK293 cells treated with 100 ng/mL doxycycline to induce expression of the receptor construct of interest. Cells were washed with ice-cold phosphate-buffered saline, removed from dishes by scraping and centrifuged at 3000 rpm for 5 min at 4 °C. Pellets were resuspended in TE buffer (10 mM Tris-HCl, 0.1 mM EDTA; pH 7.5) containing a protease inhibitor mixture (Roche Applied Science, West Sussex, UK) and homogenized with a 5 ml hand-held homogenizer. This material was centrifuged at 1500 rpm for 5 min at 4 °C and the supernatant was further centrifuged at 50000 rpm for 45 min at 4 °C. The resulting pellet was resuspended in TE buffer and protein content was assessed using a BCA protein assay kit (Pierce, Fisher Scientific, Loughborough, UK).\nThe reaction was then initiated with addition of [^35S]GTPγS (50 nCi per tube), and the reaction was terminated after 45 minutes incubation at 30 °C by rapid filtration through GF/C glass filters using a 24-well Brandel cell harvester (Alpha Biotech, Glasgow, UK). […] Dried filters were added to 3 mL of Ultima Gold^TM XR (PerkinElmer Life Sciences, Beaconsfield, UK) and [^35S]GTPγS binding was determined by liquid scintillation spectrometry.\nTo quantify the extent of allosteric interaction between pairs of ligands, data were analysed using an operational model of allosteric modulation described previously. The general version of this model can be depicted by the following equation: E=Em(τA[A](KB+αβ[B])+τB[B]KA)^n/([A]KB+KAKB+[B]KA+α[A][B])^n+(τA[A](KB+αβ[B])+τB[B]KA)^n where, E is the pharmacological effect, [A] and [B] are the orthosteric and allosteric compound concentrations at equilibrium, respectively; KA and KB are the equilibrium dissociation constants of the orthosteric and allosteric ligands respectively, denoting the binding affinities of the two ligands to the receptor; α is the binding cooperativity factor denoting the magnitude and direction of the allosteric effect on binding affinity of the orthosteric agonist to the receptor, β is the activation cooperativity factor representing the measure of the allosteric effect on orthosteric efficacy. τA and τB represent the intrinsic activity of the orthosteric and allosteric ligand, respectively. Em is the maximal possible system response and n denotes the slope factor of the transducer function. In case of global fitting of the allosterism data through this equation, Em and n values were always constrained and other parameters (KA, KB,τA, τB, α, β) were estimated."}, "[4]": {"details": "agonist DIM, modulator compound-1"}},
  "data": [
    {"smiles": "CCCCCCCCCC(=O)O", "note": "[C10, decanoic acid]", "values": [
      {"measurement": "ability to compete with [3H]G9543 binding", "setting": "[1]", "value": "neither C10 nor DIM was able to compete effectively"},
      {"measurement": "effect of Arg174Ala mutation on agonist function or potency", "setting": "[2]", "value": "did not affect function or potency"},
      {"measurement": "co-addition with compound-1 or embelin, effect on potency", "setting": "[3]", "value": "did not result in modulation of the potency"},
      {"measurement": "logα", "setting": "[3]; agonist C-10, modulator DIM", "value": "1.4 ± 0.1"},
      {"measurement": "logβ", "setting": "[3]; agonist C-10, modulator DIM", "value": "0.4 ± 0.07"}
    ]},
    {"smiles": "c1ccc2c(Cc3c[nH]c4ccccc34)c[nH]c2c1", "note": "[DIM, 3,-3′-diindolylmethane]", "values": [
      {"measurement": "ability to compete with [3H]G9543 binding", "setting": "[1]", "value": "neither C10 nor DIM was able to compete effectively"},
      {"measurement": "effect of Arg174Ala mutation on agonist function or potency", "setting": "[2]", "value": "did not affect function or potency"},
      {"measurement": "increase in potency of DIM to activate GPR84 at high levels of C10 or other MCFAs versus absence of C10", "setting": "[3]", "value": "~20", "unit": "fold"},
      {"measurement": "logα", "setting": "[3]; agonist DIM, modulator C-10", "value": "1.3 ± 0.1"},
      {"measurement": "logβ", "setting": "[3]; agonist DIM, modulator C-10", "value": "1.2 ± 0.05"},
      {"measurement": "logα", "setting": "[3]; [4]", "value": "1.8 ± 0.08"},
      {"measurement": "logβ", "setting": "[3]; [4]", "value": "1.14 ± 0.03"},
      {"measurement": "logα", "setting": "[3]; agonist DIM, modulator embelin", "value": "1.12 ± 0.04"},
      {"measurement": "logβ", "setting": "[3]; agonist DIM, modulator embelin", "value": "1.0 ± 0.03"},
      {"measurement": "allosteric effect on potency of C10", "setting": "[3]; co-addition of increasing concentrations of DIM, pertussis toxin-treated cells", "value": "positive allosteric modulator"},
      {"measurement": "effect on measured potency of compound-1 and embelin", "setting": "[3]; increasing concentrations of DIM", "value": "enhancing the measured potency"},
      {"measurement": "response after pertussis toxin treatment", "setting": "[3]; pertussis toxin-resistant fusion, pertussis toxin 24 h", "value": "unaffected"}
    ]}
  ]
}
